Reference: PMC9120017, “Inhibition mechanism of the chloride channel TMEM16A by the pore blocker 1PBC” (Nature Communications, 2022)
Like-named read-outs stand apart in the source and are kept apart here.

Molecular target: T1, mouse TMEM16A mutant I516A (Mus musculus, UniProt Q8BHY3, I516A)
T1 construct: expressed in transfected cells; host or cells: HEK293T
T1 sequence (Q8BHY3 1-960 I516A): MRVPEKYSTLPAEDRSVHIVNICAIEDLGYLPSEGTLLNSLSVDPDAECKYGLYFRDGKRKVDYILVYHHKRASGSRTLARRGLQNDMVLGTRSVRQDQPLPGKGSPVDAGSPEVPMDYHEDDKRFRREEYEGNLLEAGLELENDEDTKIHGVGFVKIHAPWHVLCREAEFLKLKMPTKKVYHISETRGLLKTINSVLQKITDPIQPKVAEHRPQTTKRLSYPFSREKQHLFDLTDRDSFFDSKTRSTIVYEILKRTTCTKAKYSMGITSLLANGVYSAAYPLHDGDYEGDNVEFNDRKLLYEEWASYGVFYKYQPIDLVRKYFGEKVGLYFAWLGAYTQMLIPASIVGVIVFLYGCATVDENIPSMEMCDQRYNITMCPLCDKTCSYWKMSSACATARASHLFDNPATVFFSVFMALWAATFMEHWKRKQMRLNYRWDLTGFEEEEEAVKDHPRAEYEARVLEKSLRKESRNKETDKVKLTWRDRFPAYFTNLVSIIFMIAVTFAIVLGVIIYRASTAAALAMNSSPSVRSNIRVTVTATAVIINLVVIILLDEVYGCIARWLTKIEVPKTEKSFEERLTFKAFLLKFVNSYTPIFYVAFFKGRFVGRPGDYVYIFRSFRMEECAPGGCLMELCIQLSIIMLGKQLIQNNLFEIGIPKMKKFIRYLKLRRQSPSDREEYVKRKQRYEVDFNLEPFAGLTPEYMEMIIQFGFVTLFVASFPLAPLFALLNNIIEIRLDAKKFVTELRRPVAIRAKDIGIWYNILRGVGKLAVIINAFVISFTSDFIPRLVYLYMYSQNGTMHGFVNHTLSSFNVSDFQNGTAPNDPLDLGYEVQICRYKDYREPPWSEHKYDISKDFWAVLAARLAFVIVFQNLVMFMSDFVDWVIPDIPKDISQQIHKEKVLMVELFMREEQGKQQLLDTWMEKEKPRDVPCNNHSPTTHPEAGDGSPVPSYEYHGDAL
Experiment: Inside-out patch recording of 1PBC block, mutant I516A
Format: cell-based
Details: for remaining activity at 1 µM: 1PBC 1; for remaining activity at 1 µM / remaining activity at 3 µM / remaining activity at 10 µM / remaining activity at 30 µM / remaining activity at 100 µM: read-out: fraction of unblocked current; for remaining activity at 3 µM: 1PBC 3; for remaining activity at 10 µM: 1PBC 10; for remaining activity at 30 µM: 1PBC 30; for remaining activity at 100 µM: 1PBC 100
Protocol: HEK293T cells (ATCC CRL-1573) were maintained in Dulbecco’s modified Eagle’s medium (DMEM; Sigma-Aldrich) supplemented with 10 U ml^−1 penicillin, 0.1 mg ml^−1 streptomycin (Sigma-Aldrich), 2 mM L-glutamine (Sigma-Aldrich), and 10% FBS (Sigma-Aldrich) in a humidified atmosphere containing 5% CO2 at 37 °C. HEK293S GnTI^− cells (ATCC CRL-3022) were maintained in HyClone HyCell TransFx-H medium (GE Healthcare) supplemented with 10 U ml^−1 penicillin, 0.1 mg ml^−1 streptomycin, 4 mM L-glutamine, 0.15% poloxamer 188 (Sigma-Aldrich), and 1% FBS in an atmosphere containing 5% CO2 at 185 rpm at 37 °C. The ac splice variant of mouse TMEM16A (UniProt ID: Q8BHY3), mouse TMEM16B (UniProt ID: Q8CFW1), or mouse TMEM16F (UniProt ID: Q6P9J9) bearing a 3C cleavage site, a Venus YFP, a Myc tag, and a Streptavidin-binding peptide (SBP) downstream of the open reading frame in a modified pcDNA3.1 vector (Invitrogen) were used as described previously[21],[31]. Mutations were introduced using a modified QuikChange method[58] and were verified by sequencing.
HEK293T cells were transfected with 3–4 μg DNA per 6 cm Petri dish using the calcium phosphate co-precipitation method and were used within 24–96 h after transfection. Recordings were performed on inside-out patches excised from HEK293T cells expressing the construct of interest. Patch pipettes were pulled from borosilicate glass capillaries (O.D. 1.5 mm, I.D. 0.86 mm, Sutter Instrument) and were fire-polished with a microforge (Narishige) before use. Pipette resistance was typically 3–8 MΩ when filled with the recording solutions detailed below. Seal resistance was typically 4 GΩ or higher. Voltage-clamp recordings were made using Axopatch 200B, Digidata 1550, and Clampex 10.7 (Molecular Devices). Analog signals were filtered with the in-built 4-pole Bessel filter at 10 kHz and were digitized at 20 kHz. Solution exchange was achieved using a gravity-fed system through a theta glass pipette mounted on an ultra-fast piezo-driven stepper (Siskiyou). […] All recordings were performed at 20 °C.
A symmetrical ionic condition was used throughout. Stock solution with Ca^2+-EGTA contained 150 mM NaCl, 5.99 mM Ca(OH)2, 5 mM EGTA, and 10 mM HEPES at pH 7.40. Stock solution with EGTA contained 150 mM NaCl, 5 mM EGTA, and 10 mM HEPES at pH 7.40. Free Ca^2+ concentrations were adjusted by mixing the stock solutions at the required ratios calculated using the WEBMAXC program (http://web.stanford.edu/~cpatton/webmaxcS.htm). Patch pipettes were filled with the stock solution with Ca^2+-EGTA, which has a free Ca^2+ concentration of 1 mM. 1PBC (ChemBridge) stock was reconstituted in anhydrous DMSO (Sigma-Aldrich) at 100 mM and stored at −20 °C. Working solutions with 1PBC were prepared by serial dilution. Unless otherwise stated, experiments were performed at a saturating Ca^2+ concentration as shown in Supplementary Table 1 and the primary data were corrected for current rundown as described previously[21],[25].
Concentration-response relations, obtained from the ratio of the I-V plots before and after the application of the blocker, were fitted to the Hill equation,1 I/Imax=1/1+IC50/[blocker]^h where I/Imax is the normalized current responses, IC50 defines the concentration at which inhibition is at its half-maximum, and h is the Hill coefficient.

N#Cc1c(C(F)(F)F)cc(O)n2c1nc1ccccc12 [1PBC]
IC50 (0 mV, 2 µM Ca2+): 5.69 µM
remaining activity at 1 µM (0 mV): 81.6%
remaining activity at 1 µM (20 mV): 79%
remaining activity at 1 µM (40 mV): 76.3%
remaining activity at 1 µM (60 mV): 76.1%
remaining activity at 1 µM (80 mV): 76%
remaining activity at 1 µM (100 mV): 78.2%
remaining activity at 1 µM (120 mV): 80.5%
remaining activity at 1 µM (140 mV): 85%
remaining activity at 1 µM (-20 mV): 84.2%
remaining activity at 1 µM (-40 mV): 86.9%
remaining activity at 1 µM (-60 mV): 90.5%
remaining activity at 1 µM (-80 mV): 93.4%
remaining activity at 1 µM (-100 mV): 94.6%
remaining activity at 1 µM (-120 mV): 96.7%
remaining activity at 1 µM (-140 mV): 99.6%
remaining activity at 3 µM (0 mV): 66.1%
remaining activity at 3 µM (20 mV): 63.1%
remaining activity at 3 µM (40 mV): 60.5%
remaining activity at 3 µM (60 mV): 57.3%
remaining activity at 3 µM (80 mV): 57.5%
remaining activity at 3 µM (100 mV): 58.7%
remaining activity at 3 µM (120 mV): 60.2%
remaining activity at 3 µM (140 mV): 62.8%
remaining activity at 3 µM (-20 mV): 69.1%
remaining activity at 3 µM (-40 mV): 74.1%
remaining activity at 3 µM (-60 mV): 78.3%
remaining activity at 3 µM (-80 mV): 81.5%
remaining activity at 3 µM (-100 mV): 84.3%
remaining activity at 3 µM (-120 mV): 86.9%
remaining activity at 3 µM (-140 mV): 88%
remaining activity at 10 µM (0 mV): 37.2%
remaining activity at 10 µM (20 mV): 33.9%
remaining activity at 10 µM (40 mV): 31.3%
remaining activity at 10 µM (60 mV): 30.4%
remaining activity at 10 µM (80 mV): 30.4%
remaining activity at 10 µM (100 mV): 30.4%
remaining activity at 10 µM (120 mV): 31.9%
remaining activity at 10 µM (140 mV): 35.1%
remaining activity at 10 µM (-20 mV): 40.4%
remaining activity at 10 µM (-40 mV): 43.9%
remaining activity at 10 µM (-60 mV): 48.6%
remaining activity at 10 µM (-80 mV): 50.8%
remaining activity at 10 µM (-100 mV): 55.1%
remaining activity at 10 µM (-120 mV): 58%
remaining activity at 10 µM (-140 mV): 60.3%
remaining activity at 30 µM (0 mV): 16.3%
remaining activity at 30 µM (20 mV): 15%
remaining activity at 30 µM (40 mV): 13.7%
remaining activity at 30 µM (60 mV): 12.5%
remaining activity at 30 µM (80 mV): 12.7%
remaining activity at 30 µM (100 mV): 13.1%
remaining activity at 30 µM (120 mV): 14.6%
remaining activity at 30 µM (140 mV): 16.7%
remaining activity at 30 µM (-20 mV): 17.7%
remaining activity at 30 µM (-40 mV): 19.9%
remaining activity at 30 µM (-60 mV): 22.8%
remaining activity at 30 µM (-80 mV): 25.3%
remaining activity at 30 µM (-100 mV): 28%
remaining activity at 30 µM (-120 mV): 31.5%
remaining activity at 30 µM (-140 mV): 34.4%
remaining activity at 100 µM (0 mV): 6.15%
remaining activity at 100 µM (20 mV): 5.12%
remaining activity at 100 µM (40 mV): 5.16%
remaining activity at 100 µM (60 mV): 5.16%
remaining activity at 100 µM (80 mV): 5.57%
remaining activity at 100 µM (100 mV): 6.35%
remaining activity at 100 µM (120 mV): 6.87%
remaining activity at 100 µM (140 mV): 7.57%
remaining activity at 100 µM (-20 mV): 7.18%
remaining activity at 100 µM (-40 mV): 7.63%
remaining activity at 100 µM (-60 mV): 9.24%
remaining activity at 100 µM (-80 mV): 10.6%
remaining activity at 100 µM (-100 mV): 12.4%
remaining activity at 100 µM (-120 mV): 14.7%
remaining activity at 100 µM (-140 mV): 17.2%
IC50 (20 mV, 2 µM Ca2+): 4.91 µM
IC50 (40 mV, 2 µM Ca2+): 4.32 µM
IC50 (60 mV, 2 µM Ca2+): 3.97 µM
log-fold IC50 (change of mutant vs WT) (80 mV): 0.3402
IC50 (80 mV, 2 µM Ca2+): 4 µM
IC50 (100 mV, 2 µM Ca2+): 4.22 µM
IC50 (120 mV, 2 µM Ca2+): 4.6 µM
IC50 (140 mV, 2 µM Ca2+): 5.41 µM
IC50 (-20 mV, 2 µM Ca2+): 6.57 µM
IC50 (-40 mV, 2 µM Ca2+): 7.87 µM
IC50 (-60 mV, 2 µM Ca2+): 9.65 µM
IC50 (-80 mV, 2 µM Ca2+): 11 µM
IC50 (-100 mV, 2 µM Ca2+): 12.9 µM
IC50 (-120 mV, 2 µM Ca2+): 15 µM
IC50 (-140 mV, 2 µM Ca2+): 17 µM
IC50 (I516A, V 0 mV): 5.69 µM
IC50 (I516A, V 20 mV): 4.91 µM
IC50 (I516A, V 40 mV): 4.32 µM
IC50 (I516A, V 60 mV): 3.97 µM
IC50 (I516A, V 80 mV): 4 µM
IC50 (I516A, V 100 mV): 4.22 µM
IC50 (I516A, V 120 mV): 4.6 µM
IC50 (I516A, V 140 mV): 5.41 µM
IC50 (I516A, V -20 mV): 6.57 µM
IC50 (I516A, V -40 mV): 7.87 µM
IC50 (I516A, V -60 mV): 9.65 µM
IC50 (I516A, V -80 mV): 11 µM
IC50 (I516A, V -100 mV): 12.9 µM
IC50 (I516A, V -120 mV): 15 µM
IC50 (I516A, V -140 mV): 17 µM
